{"source": "patent US20050059718A1", "about": "“Methods of using zonisamide as an adjunctive therapy for partial seizures” (priority 2003, published 2005)", "key": {"[1]": {"details": "patients; cited from earlier work"}, "[2]": {"test_system": "dopaminergic and serotonergic neurotransmission", "details": "in vivo microdialysis; cited from earlier work"}, "[3]": {"excerpt": "The clinical manifestations of myeloma vary from smoldering myeloma to symptomatic plasma cell dyscrasia. A lot of variables, alone or in combination, have been used as a discriminating index of malignant proliferation of B-lymphocytes or plasma cells."}, "[4]": {"test_system": "sodium channels", "details": "in vitro; cited from earlier work"}, "[5]": {"test_system": "cultured mouse spinal cord neurons", "details": "10-30 μg/mL, cited from earlier work"}, "[6]": {"test_system": "liver enzymes", "details": "cited from earlier work"}, "[7]": {"test_system": "T-type Ca2+ currents", "details": "in vitro; cited from earlier work"}, "[8]": {"test_system": "rat hippocampal slices", "details": "10-30 μg/mL; cited from earlier work"}, "[9]": {"details": "cited from earlier work"}, "[10]": {"details": "patients on regular dosages; cited from earlier work"}, "[11]": {"test_system": "carbonic anhydrase", "details": "relative to acetazolamide; cited from earlier work"}, "[12]": {"test_system": "GABA/benzodiazepine receptor ionophore complex", "details": "in vitro; no change in chloride flux; cited from earlier work"}}, "note": "Entries after “also recorded” stand apart in the source; their conditions may differ."}
{"smiles": "O=C1NC(=O)C(c2ccccc2)(c2ccccc2)N1", "note": "[phenyloin]", "values": [{"measurement": "association with multiple myeloma", "setting": "[1]", "value": "implicated in several incidents of multiple myeloma"}]}
{"smiles": "NC(=O)N1c2ccccc2C=Cc2ccccc21", "note": "[Carbamazepine]", "values": [{"measurement": "association with multiple myeloma", "setting": "[1]", "value": "associated with development of MM"}]}
{"smiles": "CCC1(c2ccccc2)C(=O)NCNC1=O", "note": "[primidone]", "values": [{"measurement": "association with multiple myeloma", "setting": "[1]", "value": "associated with development of MM"}]}
{"smiles": "NS(=O)(=O)Cc1noc2ccccc12", "note": "[zonisamide, 1,2-benzisoxazole-3-methanesulfonamide]", "values": [{"measurement": "dopaminergic and serotonergic neurotransmission", "setting": "[2]", "value": "facilitates both dopaminergic and serotonergic neurotransmission"}, {"measurement": "Bence-Jones protein in urine", "setting": "[3]; human, in vivo", "value": "not demonstrated"}, {"measurement": "M-protein concentration", "setting": "[3]; human, in vivo", "value": "> 3.5", "unit": "g/dL"}, {"measurement": "bone marrow chromosomal analysis", "setting": "[3]; human, in vivo", "value": "normal karyotype of 46 XY"}, {"measurement": "diagnosis", "setting": "[3]; human, in vivo", "value": "smoldering multiple myeloma"}, {"measurement": "helper T cell count (CD4)", "setting": "[3]; human, in vivo", "value": "normal"}, {"measurement": "peripheral blood examination", "setting": "[3]; human, in vivo", "value": "no cytopenia"}, {"measurement": "serum IgA", "setting": "[3]; human, in vivo", "value": 40, "unit": "mg/dL"}, {"measurement": "serum IgM", "setting": "[3]; human, in vivo", "value": 38, "unit": "mg/dL"}, {"measurement": "serum creatinine, calcium and beta2-microglobulin", "setting": "[3]; human, in vivo", "value": "not elevated"}, {"measurement": "serum immunoglobulin G (IgG)", "setting": "[3]; human, in vivo", "value": 3.68, "unit": "g/dL"}, {"measurement": "serum protein immunoelectrophoresis", "setting": "[3]; human, in vivo", "value": "M-protein composed of IgG with a single lambda type of L-chain"}, {"measurement": "effect on sodium channels", "setting": "[4]", "value": "blocks sodium channels"}, {"measurement": "postsynaptic GABA or glutamate responses", "setting": "[5]; cultured mouse spinal cord neurons", "value": "without affecting postsynaptic GABA or glutamate responses"}, {"measurement": "synaptically-driven electrical activity", "setting": "[5]", "value": "suppresses synaptically-driven electrical activity"}, {"measurement": "liver (hepatic) enzyme induction", "setting": "[6]", "value": "not known to be a hepatic enzyme inducer; also recorded: no liver enzyme inducing activity"}, {"measurement": "effect on voltage-dependent, transient inward currents (T-type Ca2+ currents)", "setting": "[7]", "value": "reduces voltage-dependent, transient inward currents"}, {"measurement": "neuronal or glial uptake of [3H]-GABA", "setting": "[8]", "value": "without affecting"}, {"measurement": "half-life", "setting": "[9]; in vivo", "value": "long half-life"}, {"measurement": "time required to achieve steady-state levels", "setting": "[9]; upon reaching a stable dose or following dosage adjustment", "value": "up to two weeks"}, {"measurement": "correlation between dosage or serum level and immunoglobulin levels", "setting": "[10]", "value": "no significant correlation"}, {"measurement": "carbonic anhydrase inhibiting activity, inhibition compared to acetazolamide", "setting": "[11]", "value": "1/50"}, {"measurement": "binding to GABA/benzodiazepine receptor ionophore complex", "setting": "[12]", "value": "binds to the GABA/benzodiazepine receptor ionophore complex in an allosteric fashion"}]}
{"smiles": "CCCC(CCC)C(=O)[O-].[Na+]", "note": "[sodium valproate]", "values": [{"measurement": "seizure control after replacing zonisamide", "setting": "[3]; 13-month follow-up", "value": "prevented convulsions"}]}
